According to ChEMBL document CHEMBL1201862, “PubChem BioAssay data set” (2004):
“And” between values parts separate entries of the source, which are not always exact repeats. Equal values may be shown once.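 Compound exposure: 48 hours, 5 concentrations, 96-well plates. The concentration for 50% growth inhibition is given as GI50.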 The source made the active and inactive calls. No stated cut-off is given here; in the data, active = GI50 up to about 1.1 µM and inactive = higher. Where a SMILES comes first, the peptide text is derived from it. The star is where a group is joined. Cbz = O=C(OCc1ccccc1)*

Columns and labels:
Experiment in all cases: growth of human tumour cells (NCI), 48 h
SK-MEL-28 = test system: SK-MEL-28
TK-10 = test system: TK-10
HCT-116 = test system: HCT-116
MCF7 = test system: MCF7
MDA-N = test system: MDA-N
DU-145 = test system: DU-145
SF-295 = test system: SF-295
NCI/ADR-RES = test system: NCI/ADR-RES
SF-539 = test system: SF-539
SNB-75 = test system: SNB-75
M14 = test system: M14
OVCAR-3 = test system: OVCAR-3
CCRF-CEM = test system: CCRF-CEM
BT-549 = test system: BT-549
LOX IMVI = test system: LOX IMVI
A549 = test system: A549
NCI-H226 = test system: NCI-H226
T47D = test system: T47D
SK-OV-3 = test system: SK-OV-3
CAKI-1 = test system: CAKI-1

SMILES	GI50 (SK-MEL-28)	GI50 (TK-10)	GI50 (HCT-116)	GI50 (MCF7)	GI50 (MDA-N)	GI50 (DU-145)	GI50 (SF-295)	GI50 (NCI/ADR-RES)	GI50 (SF-539)	GI50 (SNB-75)	GI50 (M14)	GI50 (OVCAR-3)	GI50 (CCRF-CEM)	GI50 (BT-549)	GI50 (LOX IMVI)	GI50 (A549)	GI50 (NCI-H226)	GI50 (T47D)	GI50 (SK-OV-3)	GI50 (CAKI-1)
COc1ccc(C(=O)c2cc(OC)c(OC)c(OC)c2)cc1OC	5.94 µM (inactive)	> 100 µM (inactive)	4.94 µM (inactive)	2.24 µM (inactive)	0.618 µM (active)	3.92 µM (inactive)	1.82 µM (inactive)	3.84 µM (inactive)	2.32 µM (inactive)	4.04 µM (inactive)	8.83 µM (inactive)	3.71 µM (inactive)	4.37 µM (inactive)	5.41 µM (inactive)	7.83 µM (inactive)	4.44 µM (inactive)	–	–	–	–
COC(=O)C1=C(C)NC(C)=C(C(=O)OC)C1c1cccc(NO)c1	15.1 µM (inactive)	14.2 µM (inactive)	13 µM (inactive)	19 µM (inactive)	15.1 µM (inactive)	22 µM (inactive)	25.9 µM (inactive)	20 µM (inactive)	17.4 µM (inactive)	–	18.9 µM (inactive)	16 µM (inactive)	3.79 µM (inactive)	18.4 µM (inactive)	16 µM (inactive)	> 100 µM (inactive)	15.2 µM (inactive)	13.5 µM (inactive)	> 100 µM (inactive)	13.2 µM (inactive)
CCCCCCCCCCCCCCCCOP(=O)(O)OP(=O)(O)OCC1OC(n2ccc(N)nc2=O)CC1O (stereo unspecified)	> 100 µM (inactive)	> 100 µM (inactive)	> 100 µM (inactive)	> 100 µM (inactive)	> 100 µM (inactive)	–	> 100 µM (inactive)	> 100 µM (inactive)	> 100 µM (inactive)	> 100 µM (inactive)	> 100 µM (inactive)	> 100 µM (inactive)	> 100 µM (inactive)	> 100 µM (inactive)	> 100 µM (inactive)	> 100 µM (inactive)	> 100 µM (inactive)	> 100 µM (inactive)	> 100 µM (inactive)	> 100 µM (inactive)
CC1CC(=O)Nc2cc(Cl)ccc2N1C(=O)C1CC1 (stereo unspecified)	> 100 µM (inactive)	> 100 µM (inactive)	> 100 µM (inactive)	> 100 µM (inactive)	> 100 µM (inactive)	> 100 µM (inactive)	> 100 µM (inactive)	–	> 100 µM (inactive)	–	> 100 µM (inactive)	> 100 µM (inactive)	> 100 µM (inactive)	> 100 µM (inactive)	> 100 µM (inactive)	> 100 µM (inactive)	> 100 µM (inactive)	> 100 µM (inactive)	> 100 µM (inactive)	> 100 µM (inactive)
CN(Cc1cnc2nc(N)nc(N)c2n1)c1ccc(C(=O)N[C@@H](CCS(=O)(=O)O)C(=O)O)cc1	> 100 µM (inactive)	–	0.0352 µM (active)	0.127 µM (active)	0.057 µM (active)	0.562 µM (active)	0.0766 µM (active)	1.18 µM (inactive)	0.614 µM (active)	–	0.111 µM (active)	> 49.5 µM (inactive)	> 100 µM (inactive)	0.404 µM (active)	0.0526 µM (active)	0.182 µM (active)	51.5 µM (inactive)	> 100 µM (inactive)	–	> 100 µM (inactive)
CNc1nc(C(N)=O)c(N)s1	> 100 µM (inactive)	> 100 µM (inactive)	> 100 µM (inactive)	–	> 100 µM (inactive)	> 100 µM (inactive)	> 100 µM (inactive)	> 100 µM (inactive)	> 100 µM (inactive)	–	> 100 µM (inactive)	> 100 µM (inactive)	> 100 µM (inactive)	> 100 µM (inactive)	> 100 µM (inactive)	> 100 µM (inactive)	> 100 µM (inactive)	> 100 µM (inactive)	> 100 µM (inactive)	> 100 µM (inactive)
CCOC(=O)C(NC(=O)NCc1ccc(F)cc1)C(F)(F)F (stereo unspecified)	> 100 µM (inactive)	> 100 µM (inactive)	> 100 µM (inactive)	–	> 100 µM (inactive)	–	–	> 100 µM (inactive)	> 100 µM (inactive)	> 100 µM (inactive)	> 100 µM (inactive)	–	> 100 µM (inactive)	> 100 µM (inactive)	> 100 µM (inactive)	> 100 µM (inactive)	–	> 100 µM (inactive)	> 100 µM (inactive)	–
C=CC(=O)C#CC#CC/C=C\CCCCCCC	> 20.6 µM (inactive)	> 20.6 µM (inactive)	> 17.6 µM (inactive)	> 20.6 µM (inactive)	–	> 20.6 µM (inactive)	> 20.6 µM (inactive)	> 20.6 µM (inactive)	> 20.6 µM (inactive)	> 20.6 µM (inactive)	> 14.6 µM (inactive)	> 20.6 µM (inactive)	4.9 µM (inactive)	> 20.6 µM (inactive)	7.76 µM (inactive)	> 20.6 µM (inactive)	> 20.6 µM (inactive)	> 20.6 µM (inactive)	> 20.6 µM (inactive)	> 20.6 µM (inactive)
CC[C@H]1C=CCC[C@@]2(C[C@@H]3CC[C@@H]4[C@H](C(=O)OCCCCCCCCCCCCCCCC(=O)N(CCCN)CCCCN)[C@]5(CCC[C@@H](C)O5)NC(=[N+]34)N2)O1	0.233 µM (active)	1.23 µM (inactive)	0.0275 µM (active)	0.0684 µM (active)	0.0121 µM (active)	0.348 µM (active)	0.024 µM (active)	0.0944 µM (active)	0.0679 µM (active)	0.0533 µM (active)	< 0.01 µM (active)	0.0738 µM (active)	0.0151 µM (active)	0.138 µM (active)	0.018 µM (active)	0.0365 µM (active)	0.314 µM (active)	–	0.136 µM (active)	0.0908 µM (active)
CCCCC[C@H]1CC=CC(=O)O1	7.26 µM (inactive)	9.48 µM (inactive)	3.16 µM (inactive)	4.89 µM (inactive)	5.02 µM (inactive)	5.83 µM (inactive)	10.4 µM (inactive)	5.92 µM (inactive)	1.56 µM (inactive)	–	11.5 µM (inactive)	3.5 µM (inactive)	4.74 µM (inactive)	4.06 µM (inactive)	4.65 µM (inactive)	5.86 µM (inactive)	4.13 µM (inactive)	4.55 µM (inactive)	10.8 µM (inactive)	2.55 µM (inactive)
O=C1c2ccccc2C(=O)N1CC1(C(=O)O)NCCS1(=O)=O (stereo unspecified)	> 100 µM (inactive)	> 100 µM (inactive)	> 100 µM (inactive)	> 100 µM (inactive)	> 100 µM (inactive)	–	> 100 µM (inactive)	> 100 µM (inactive)	> 100 µM (inactive)	–	> 100 µM (inactive)	> 100 µM (inactive)	> 100 µM (inactive)	> 100 µM (inactive)	> 100 µM (inactive)	> 100 µM (inactive)	> 100 µM (inactive)	> 100 µM (inactive)	> 100 µM (inactive)	> 100 µM (inactive)
S=C(/N=c1\sc(Nc2ccc(Cl)cc2)nc2sc3c(c12)CCN(N1CCc2c(sc4nc(Nc5ccc(Cl)cc5)s/c(=N\C(=S)Nc5ccc(Cl)cc5)c24)C1)C3)Nc1ccc(Cl)cc1	38.2 µM (inactive)	44.6 µM (inactive)	17.9 µM (inactive)	40.6 µM (inactive)	17 µM (inactive)	25.4 µM (inactive)	38.7 µM (inactive)	48 µM (inactive)	17.9 µM (inactive)	26.7 µM (inactive)	60 µM (inactive)	42.3 µM (inactive)	–	> 100 µM (inactive)	–	55.2 µM (inactive)	78.2 µM (inactive)	–	27.7 µM (inactive)	–
COc1ccc(-n2c(C)nc3ccc(NC4OCC(O)C(O)C4O)cc3c2=O)cc1 (stereo unspecified)	21.8 µM (inactive) and 32.1 µM (inactive)	> 100 µM (inactive)	18.6 µM (inactive) and 19.4 µM (inactive)	43.5 µM (inactive) and 48.4 µM (inactive)	61.9 µM (inactive) and 62.4 µM (inactive)	> 100 µM (inactive)	> 100 µM (inactive)	53.7 µM (inactive) and 83.6 µM (inactive)	–	> 100 µM (inactive)	–	> 100 µM (inactive)	–	74.5 µM (inactive)	18.8 µM (inactive) and 22.5 µM (inactive)	–	37.3 µM (inactive) and 37.6 µM (inactive)	> 100 µM (inactive)	–	–
CCOC(=O)C(CC(=O)OC)NC(=O)C(CC(=O)OC)NC(=O)C(CC(=O)OC)NC(=O)C(CC(=O)OC)NC(=O)OCc1ccccc1 (stereo unspecified) (Cbz-D(OMe)D(OMe)D(OMe)D(OMe)-OEt; configuration not given here)	> 100 µM (inactive)	> 100 µM (inactive)	> 100 µM (inactive)	> 100 µM (inactive)	> 100 µM (inactive)	–	–	–	–	> 100 µM (inactive)	> 100 µM (inactive)	–	–	> 100 µM (inactive)	–	> 100 µM (inactive)	> 100 µM (inactive)	> 100 µM (inactive)	–	–
CCN(CC)CCCNc1c2c(Cl)cc(Cl)cc2nc2nc(O)nc(C)c12	30.6 µM (inactive)	> 100 µM (inactive)	17.1 µM (inactive)	23.3 µM (inactive)	18.6 µM (inactive)	> 100 µM (inactive)	59.8 µM (inactive)	> 100 µM (inactive)	> 100 µM (inactive)	–	26.4 µM (inactive)	77.6 µM (inactive)	34.5 µM (inactive)	84.5 µM (inactive)	23.1 µM (inactive)	42.9 µM (inactive)	55.2 µM (inactive)	> 100 µM (inactive)	25.6 µM (inactive)	> 100 µM (inactive)
